Literature values, collected in patent US11965206B2, “Method of dosing a patient with multiple drugs using adjusted phenotypes of CYP450 enzymes” (priority 2018, dated 2024).
Read-outs that look alike come from different tables or passages of the source.

Tests used:
CYP450 enzyme 2D6 = CYP450 enzyme 2D6 (Homo sapiens, UniProt P10635)
CYP450 enzyme 2C19 = CYP450 enzyme 2C19 (Homo sapiens, UniProt P33261); details: found in drug databases
CYP450 enzyme 2B6 = target: T1, CYP450 enzyme 2B6 (Homo sapiens, UniProt P20813); details: found in drug databases
T1 sequence (P20813 1-491): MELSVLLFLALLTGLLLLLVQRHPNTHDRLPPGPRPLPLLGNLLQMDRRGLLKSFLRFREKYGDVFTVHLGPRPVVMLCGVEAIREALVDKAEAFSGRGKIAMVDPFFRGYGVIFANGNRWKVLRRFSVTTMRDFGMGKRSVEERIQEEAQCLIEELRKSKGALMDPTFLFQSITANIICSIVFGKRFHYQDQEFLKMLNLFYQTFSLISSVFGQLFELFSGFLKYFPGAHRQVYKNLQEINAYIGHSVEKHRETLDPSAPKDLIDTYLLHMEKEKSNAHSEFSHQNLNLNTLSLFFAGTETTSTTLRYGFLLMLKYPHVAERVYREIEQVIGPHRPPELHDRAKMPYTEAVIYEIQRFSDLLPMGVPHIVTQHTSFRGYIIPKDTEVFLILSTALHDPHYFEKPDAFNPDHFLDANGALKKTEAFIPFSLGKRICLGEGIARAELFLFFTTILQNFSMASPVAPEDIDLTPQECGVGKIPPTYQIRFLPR

CYP450 enzyme 2C9 = CYP450 enzyme 2C9 (Homo sapiens, UniProt P11712); details: found in drug databases
Chain of CYP450 enzyme 2C9 (P11712 whole entry): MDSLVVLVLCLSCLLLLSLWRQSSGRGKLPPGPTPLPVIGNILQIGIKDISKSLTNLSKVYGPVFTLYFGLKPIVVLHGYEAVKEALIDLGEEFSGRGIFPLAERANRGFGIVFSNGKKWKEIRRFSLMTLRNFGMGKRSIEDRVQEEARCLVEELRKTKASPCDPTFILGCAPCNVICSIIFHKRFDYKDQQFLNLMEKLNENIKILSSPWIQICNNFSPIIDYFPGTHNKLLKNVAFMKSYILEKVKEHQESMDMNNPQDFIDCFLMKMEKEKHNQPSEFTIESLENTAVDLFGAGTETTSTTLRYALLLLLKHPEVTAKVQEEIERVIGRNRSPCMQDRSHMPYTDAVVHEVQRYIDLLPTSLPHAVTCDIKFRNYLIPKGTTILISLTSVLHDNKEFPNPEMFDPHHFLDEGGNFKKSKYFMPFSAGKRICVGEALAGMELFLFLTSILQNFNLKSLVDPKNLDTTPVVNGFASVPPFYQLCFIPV

CYP450 enzyme 3A4 = CYP450 enzyme 3A4 (Homo sapiens, UniProt P08684)
Chain of CYP450 enzyme 3A4 (P08684 whole entry): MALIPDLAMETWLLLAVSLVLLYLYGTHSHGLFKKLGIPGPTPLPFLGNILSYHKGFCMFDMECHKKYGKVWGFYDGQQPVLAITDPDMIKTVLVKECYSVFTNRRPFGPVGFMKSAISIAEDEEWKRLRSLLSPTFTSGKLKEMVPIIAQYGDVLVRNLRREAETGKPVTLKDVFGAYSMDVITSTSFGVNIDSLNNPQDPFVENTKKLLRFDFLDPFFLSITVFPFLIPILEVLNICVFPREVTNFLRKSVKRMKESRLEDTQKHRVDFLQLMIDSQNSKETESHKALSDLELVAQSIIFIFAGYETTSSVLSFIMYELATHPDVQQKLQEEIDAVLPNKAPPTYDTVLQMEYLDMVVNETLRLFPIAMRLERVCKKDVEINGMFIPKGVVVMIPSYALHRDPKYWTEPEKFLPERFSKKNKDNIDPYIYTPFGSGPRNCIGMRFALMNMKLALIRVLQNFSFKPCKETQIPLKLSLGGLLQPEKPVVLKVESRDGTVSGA

Chain of CYP450 enzyme 2D6 (P10635 whole entry): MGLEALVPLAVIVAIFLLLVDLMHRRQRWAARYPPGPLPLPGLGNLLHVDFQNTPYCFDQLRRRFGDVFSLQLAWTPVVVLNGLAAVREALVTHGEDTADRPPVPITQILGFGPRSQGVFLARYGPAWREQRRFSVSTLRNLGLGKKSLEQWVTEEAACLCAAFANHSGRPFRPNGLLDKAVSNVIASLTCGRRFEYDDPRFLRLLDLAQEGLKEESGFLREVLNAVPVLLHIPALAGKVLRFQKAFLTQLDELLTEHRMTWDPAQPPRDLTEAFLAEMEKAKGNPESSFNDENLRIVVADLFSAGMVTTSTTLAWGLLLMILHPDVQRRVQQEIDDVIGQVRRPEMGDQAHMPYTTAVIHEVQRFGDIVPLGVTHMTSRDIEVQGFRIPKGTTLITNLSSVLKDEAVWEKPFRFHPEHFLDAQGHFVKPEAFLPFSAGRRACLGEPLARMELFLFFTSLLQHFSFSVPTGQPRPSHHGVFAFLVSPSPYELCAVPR
Chain of CYP450 enzyme 2C19 (P33261 whole entry): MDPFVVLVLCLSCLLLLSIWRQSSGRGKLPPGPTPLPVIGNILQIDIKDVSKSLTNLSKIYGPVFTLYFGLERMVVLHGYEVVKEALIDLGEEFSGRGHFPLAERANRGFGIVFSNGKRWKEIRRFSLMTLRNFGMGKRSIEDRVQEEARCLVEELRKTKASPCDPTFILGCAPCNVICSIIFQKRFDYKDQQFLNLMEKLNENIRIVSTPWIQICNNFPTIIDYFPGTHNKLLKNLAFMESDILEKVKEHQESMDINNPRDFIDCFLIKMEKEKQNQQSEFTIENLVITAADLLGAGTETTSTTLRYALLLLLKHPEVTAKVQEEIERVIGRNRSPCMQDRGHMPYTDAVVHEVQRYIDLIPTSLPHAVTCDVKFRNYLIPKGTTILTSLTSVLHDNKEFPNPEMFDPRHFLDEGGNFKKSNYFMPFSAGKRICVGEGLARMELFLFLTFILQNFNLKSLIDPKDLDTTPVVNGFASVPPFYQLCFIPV

SMILES	substrate for 2D6 (CYP450 enzyme 2D6; found in drug databases)	substrate for 2C9 (CYP450 enzyme 2C9)	strong, moderate or weak inhibitor of 2D6 (CYP450 enzyme 2D6; found in drug databases)	also measured
CCCC(CCC)C(=O)O [Depakote]	–	substrate	–	strong, moderate or weak inhibitor of 2C19 (CYP450 enzyme 2C19): weak inhibitor; substrate for 2B6 (CYP450 enzyme 2B6): substrate; strong, moderate or weak inhibitor of 2C9 (CYP450 enzyme 2C9): weak inhibitor
O=C(CCCN1CCC(O)(c2ccc(Cl)cc2)CC1)c1ccc(F)cc1 [Haldol]	substrate	–	weak inhibitor	–
COCCc1ccc(OCC(O)CNC(C)C)cc1 (stereo not shown) [metoprolol]	substrate	–	–	–
Fc1ccc([C@@H]2CCNC[C@H]2COc2ccc3c(c2)OCO3)cc1 [paroxetine]	–	–	–	substrate for 2D6 (CYP450 enzyme 2D6): substrate

The next lines start with results.

substrate for 2D6 (CYP450 enzyme 2D6; found in drug databases)	substrate for 2C9 (CYP450 enzyme 2C9)	strong, moderate or weak inhibitor of 2D6 (CYP450 enzyme 2D6; found in drug databases)	SMILES	also measured
substrate	–	–	O=C1CCc2ccc(OCCCCN3CCN(c4cccc(Cl)c4Cl)CC3)cc2N1 [Abilify]	–
–	–	weak inhibitor	COc1ccc([C@@H]2Sc3ccccc3N(CCN(C)C)C(=O)[C@@H]2OC(C)=O)cc1 [Diltiazem, diltiazem]	–
–	substrate	–	CCCCC1=NC2(CCCC2)C(=O)N1Cc1ccc(-c2ccccc2-c2nnn[nH]2)cc1 [Irbesartan]	–
–	–	weak inhibitor	CN(C)CCC[C@@]1(c2ccc(F)cc2)OCc2cc(C#N)ccc21 [Lexapro]	substrate for 2C19 (CYP450 enzyme 2C19): substrate; substrate for 3A4 (CYP450 enzyme 3A4): substrate
substrate	substrate	–	CNCCC(Oc1ccc(C(F)(F)F)cc1)c1ccccc1 (stereo not shown) [Prozac]	strong, moderate or weak inhibitor of 2C9 (CYP450 enzyme 2C9): moderate inhibitor
substrate	–	weak inhibitor	Cc1nc2n(c(=O)c1CCN1CCC(c3noc4cc(F)ccc34)CC1)CCCC2 [Risperidone]	–
